Data on 27 compounds can be found in ChEMBL document CHEMBL3596167, “Branched -d-mannopyranosides: a new class of potent FimH antagonists” (Medchemcomm, 2014).

For data set [1], the target named is Type 1 fimbrin D-mannose specific adhesin (Escherichia coli K-12) (UniProt P08191). The data set is described as follows: Inhibition of Escherichia coli FimH relative to methyl alpha-D-mannopyranoside.
Data set [2] deals with T1, Type 1 fimbrin D-mannose specific adhesin (Escherichia coli K-12, UniProt P08191). The data set is described as follows: Displacement of TM-PAA polymer from Escherichia coli FimH-CRD-Th-6-His expressed in Escherichia coli HM125 by competitive binding assay.
T1 sequence (P08191 whole entry): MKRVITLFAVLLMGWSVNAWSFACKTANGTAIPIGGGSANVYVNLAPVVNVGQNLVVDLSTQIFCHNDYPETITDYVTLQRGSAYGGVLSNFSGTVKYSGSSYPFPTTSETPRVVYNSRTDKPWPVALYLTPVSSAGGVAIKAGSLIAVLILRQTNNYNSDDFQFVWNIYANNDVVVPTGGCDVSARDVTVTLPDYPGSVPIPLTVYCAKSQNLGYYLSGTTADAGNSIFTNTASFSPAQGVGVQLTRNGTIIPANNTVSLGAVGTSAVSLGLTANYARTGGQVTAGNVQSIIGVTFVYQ
The test system of another data set is HepG2. Nature of the data set: Cytotoxicity against human HepG2 cells at 1 to 10 uM after 24 hrs by CellTiter 96 aqueous one solution cell proliferation assay. It is filed as cell-based. The settings on record: hepg2, 24 h.
Data set [3] deals with Type 1 fimbrin D-mannose specific adhesin (Escherichia coli K-12) (UniProt P08191). Nature of the data set: Displacement of TM-PAA polymer from Escherichia coli FimH-CRD-Th-6-His expressed in Escherichia coli HM125 at <1 uM by competitive binding assay.
For data set [4] the target is unchanged. The data set is described as follows: Displacement of TM-PAA polymer from Escherichia coli FimH-CRD-Th-6-His expressed in Escherichia coli HM125 by competitive binding assay relative to heptyl alpha-D-mannopyranoside.
Data set [5] is described as follows: Solubility of the compound in DMSO at 10 uM. It is filed as physicochemical.
In data set [6] the target is T1, Type 1 fimbrin D-mannose specific adhesin. The data set is described as follows: Binding affinity to Escherichia coli FimH.
For data set [7], the target named is Type 1 fimbrin D-mannose specific adhesin (Escherichia coli K-12) (UniProt P08191). Nature of the data set: Inhibition of Escherichia coli FimH relative to heptyl alpha-D-mannopyranoside.

Activity calls are given as the source filed them. No cut-off for these calls is given here.

Type 1 fimbrin D-mannose specific adhesin (Escherichia coli K-12), sequence (P08191 whole entry): as above

In the case of `O=[N+]([O-])c1ccc(O[C@H]2O[C@H](CO)[C@@H](O)[C@H](O)[C@@H]2O)c(Cl)c1`, in data set [1], the Ratio stood at 717.

Regarding `COc1ccc2ccc(OCC(CO[C@H]3O[C@H](CO)[C@@H](O)[C@H](O)[C@@H]3O)Oc3ccc4ccc(OC)cc4c3)cc2c1` (some centres not stated), the concentration for half-maximal inhibition (IC50) (in general, the concentration at which inhibition is half-maximal) in data set [2] was determined as 875 nM. In addition, in the data set on HepG2, the Activity entry is “Non-toxic”.

On to `O=[N+]([O-])c1ccc(CCO[C@H]2O[C@H](CO)[C@@H](O)[C@H](O)[C@@H]2O)cc1`, for which the Ratio in data set [1] worked out at 85.

Take `OC[C@H]1O[C@H](OC(COc2ccc3ccccc3c2)COc2ccc3ccccc3c2)[C@@H](O)[C@@H](O)[C@@H]1O`: in data set [3], the inhibition result was “inactive”. Besides, the Activity result with HepG2 was “Non-toxic”.

The compound `O=C(O)Cc1ccc(OCC(COc2cccc3ccccc23)O[C@H]2O[C@H](CO)[C@@H](O)[C@H](O)[C@@H]2O)cc1` (some centres not stated) registered an IC50 in data set [2] of 232 nM. Besides, the Ratio in data set [4] was 0.25. In addition, in data set [5], the solubility result was “soluble”. For the same compound, the Activity entry in the data set with HepG2 is recorded as “Non-toxic”.

Consider `OC[C@H]1O[C@H](OCC(COc2ccc3ccccc3c2)Oc2ccc3ccccc3c2)[C@@H](O)[C@@H](O)[C@@H]1O` (some centres not stated), for which the inhibition result in data set [3] was “inactive”. Moreover, the Activity result in the data set with HepG2 is recorded as “Non-toxic”.

On to `COc1ccc(OC(COc2ccc(O)cc2)CO[C@H]2O[C@H](CO)[C@@H](O)[C@H](O)[C@@H]2O)cc1` (some centres not stated), for which the half-maximal inhibitory concentration (IC50) in data set [2] turned out to be 208 nM. In addition, in data set [4], the Ratio was 0.28. For the same compound, the Activity entry with HepG2 is recorded as “Non-toxic”.

For `O=[N+]([O-])c1ccc(OCC(COc2ccc([N+](=O)[O-])cc2)O[C@H]2O[C@H](CO)[C@@H](O)[C@H](O)[C@@H]2O)cc1`, the half-maximal inhibitory concentration (IC50) in data set [2] was found to be 804 nM. For the same compound, in the data set with HepG2, the Activity result is given as “Non-toxic”.

As for `OC[C@H]1OC(O)[C@@H](O)[C@@H](O)[C@@H]1O` (stereo partly drawn) [D-MANNOSE], the Kd (commonly the free concentration of one partner at which half of the binding sites on the other are occupied at equilibrium, for simple one-to-one binding) in data set [6] came out at 2300 nM.

The compound `O=C(NCC(CNC(=O)c1ccc2ccccc2c1)O[C@H]1O[C@H](CO)[C@@H](O)[C@H](O)[C@@H]1O)c1ccc2ccccc2c1` showed an IC50 in data set [2] of 763 nM.

Consider `CCOc1c(Nc2ccc(O[C@H]3O[C@H](CO)[C@@H](O)[C@H](O)[C@@H]3O)c(Cl)c2)c(=O)c1=O`, for which the Ratio in data set [1] worked out at 6900.

`CCOCC(COc1ccc2ccccc2c1)O[C@H]1O[C@H](CO)[C@@H](O)[C@H](O)[C@@H]1O` (some centres not stated) came in with a half-maximal inhibitory concentration (IC50) in data set [2] of 746 nM. In addition, the Ratio in data set [4] turned out to be 0.08. Also, the Activity entry in the data set on HepG2 is “Non-toxic”.

Take `O=C(Cc1ccccc1)NCC(CNC(=O)Cc1ccccc1)O[C@H]1O[C@H](CO)[C@@H](O)[C@H](O)[C@@H]1O`: the inhibition entry in data set [3] was “inactive”.

`COC(=O)c1ccc2ccc(OCC(COc3ccc4ccc(OC)cc4c3)O[C@H]3O[C@H](CO)[C@@H](O)[C@H](O)[C@@H]3O)cc2c1` (some centres not stated): the IC50 in data set [2] turned out to be 212 nM. For the same compound, the Ratio in data set [4] was determined as 0.28. The solubility entry in data set [5] is “soluble”. Also, the Activity entry in the data set with HepG2 is recorded as “Non-toxic”.

`O=C(O)c1ccc(OCC(COc2cccc3ccccc23)O[C@H]2O[C@H](CO)[C@@H](O)[C@H](O)[C@@H]2O)cc1` (some centres not stated): in data set [2], the 50% inhibitory concentration (IC50) came out at 346 nM. Moreover, in data set [4], the Ratio was determined as 0.17. Further, in data set [5], the solubility result is reported as “soluble”. Also, the Activity result in the data set with HepG2 was “Non-toxic”.

In turn, `COc1ccc2ccc(OCC(COc3ccc4ccc(C(=O)O)cc4c3)O[C@H]3O[C@H](CO)[C@@H](O)[C@H](O)[C@@H]3O)cc2c1` (some centres not stated) yielded an IC50 in data set [2] of 158 nM. For the same compound, the Ratio in data set [4] was found to be 0.37. Also, the solubility entry in data set [5] is reported as “soluble”. Moreover, in the data set on HepG2, the Activity result is on record as “Non-toxic”.

As to `O=C(NCC(CNC(=O)c1ccc[nH]1)O[C@H]1O[C@H](CO)[C@@H](O)[C@H](O)[C@@H]1O)c1ccc[nH]1`, in data set [2], the half-maximal inhibitory concentration (IC50) was found to be 607 nM.

In the case of `N#Cc1ccc(C(=O)NCC(CNC(=O)c2ccc(C#N)cc2)O[C@H]2O[C@H](CO)[C@@H](O)[C@H](O)[C@@H]2O)cc1`, the IC50 in data set [2] is 978 nM.

Regarding `OC[C@H]1O[C@H](OCC(COc2cccc3ccccc23)Oc2cccc3ccccc23)[C@@H](O)[C@@H](O)[C@@H]1O` (some centres not stated), the inhibition result in data set [3] was “inactive”. Also, the Activity entry in the data set on HepG2 is on record as “Non-toxic”.

For the compound `COc1ccc(OCC(COc2ccc(OC)cc2)O[C@H]2O[C@H](CO)[C@@H](O)[C@H](O)[C@@H]2O)cc1`, in data set [3], the inhibition result is “inactive”. In addition, the Activity entry in the data set on HepG2 is given as “Non-toxic”.

As for `OC[C@H]1O[C@H](OC(COc2cccc3ccccc23)COc2cccc3ccccc23)[C@@H](O)[C@@H](O)[C@@H]1O`, in the data set on HepG2, the Activity entry is “Non-toxic”.

Regarding `OC[C@H]1O[C@H](OC(COc2ccccc2)COc2ccccc2)[C@@H](O)[C@@H](O)[C@@H]1O`, the Activity entry in the data set with HepG2 is “Non-toxic”.

As for `OCC#Cc1ccc(O[C@H]2O[C@H](CO)[C@@H](O)[C@H](O)[C@@H]2O)cc1`, the Kd in data set [6] came to 0.65 nM. The Ratio in data set [1] is 3380; in data set [7], 7.7.

For `O=[N+]([O-])c1ccc(OCC(CO[C@H]2O[C@H](CO)[C@@H](O)[C@H](O)[C@@H]2O)Oc2ccc([N+](=O)[O-])cc2)cc1` (some centres not stated), the Activity entry in the data set on HepG2 is recorded as “Non-toxic”.

As for `O=C(Cc1ccc([N+](=O)[O-])cc1)NCC(CNC(=O)Cc1ccc([N+](=O)[O-])cc1)O[C@H]1O[C@H](CO)[C@@H](O)[C@H](O)[C@@H]1O`, the inhibition entry in data set [3] is “inactive”.

In the case of `COc1ccc2ccc(OCC(COc3ccc4ccc(OC)cc4c3)O[C@H]3O[C@H](CO)[C@@H](O)[C@H](O)[C@@H]3O)cc2c1`, the IC50 in data set [2] was found to be 593 nM. Further, the Activity entry with HepG2 is “Non-toxic”.

In the case of `CCCCCCCO[C@H]1O[C@H](CO)[C@@H](O)[C@H](O)[C@@H]1O`, the concentration for half-maximal inhibition (IC50) in data set [2] is 58.9 nM.
